ChEMBL document CHEMBL3046063, “Synthesis and antimicrobial activity of 5-chloroindoline-2,3-dione derivatives” (2012)
Values after ≈ are worked out from the molar mass of the structure shown.

Legend:
Assay type in all cases: functional
Bacillus spizizenii = assay: Antimicrobial activity against Bacillus subtilis subsp. spizizenii ATCC 6633 after 24 hr by broth dilution method; details: ATCC 6633, 24 h
[1] = test system: Staphylococcus epidermidis; assay: Antimicrobial activity against Staphylococcus epidermidis ATCC 12228 after 24 hr by broth dilution method; details: ATCC 12228, 24 h
Micrococcus luteus = assay: Antimicrobial activity against Micrococcus luteus ATCC 4698 after 24 hr by broth dilution method; details: ATCC 4698, 24 h
Staphylococcus aureus = assay: Antimicrobial activity against Staphylococcus aureus ATCC 25923 after 24 hr by broth dilution method; details: ATCC 25923, 24 h
Staphylococcus hominis = assay: Antimicrobial activity against Staphylococcus hominis ATCC 27844 after 24 hr by broth dilution method; details: ATCC 27844, 24 h
Bacillus pumilus = assay: Antimicrobial activity against Bacillus pumilus ATCC 14884 after 24 hr by broth dilution method; details: ATCC 14884, 24 h
Bacillus cereus = assay: Antimicrobial activity against Bacillus cereus ATCC 11778 after 24 hr by broth dilution method; details: ATCC 11778, 24 h
Proteus vulgaris = assay: Antimicrobial activity against Proteus vulgaris ATCC 13315 after 24 hr by broth dilution method; details: ATCC 13315, 24 h
Proteus mirabilis = assay: Antimicrobial activity against Proteus mirabilis ATCC 49565 after 24 hr by broth dilution method; details: ATCC 49565, 24 h
Salmonella typhi = assay: Antimicrobial activity against Salmonella enterica subsp. enterica serovar Typhi ATCC 19430 after 24 hr by broth dilution method; details: ATCC 19430, 24 h
Klebsiella pneumoniae = assay: Antimicrobial activity against Klebsiella pneumoniae ATCC 13883 after 24 hr by broth dilution method; details: ATCC 13883, 24 h
Escherichia coli = assay: Antimicrobial activity against Escherichia coli ATCC 25922 after 24 hr by broth dilution method; details: ATCC 25922, 24 h
Pseudomonas aeruginosa = assay: Antimicrobial activity against Pseudomonas aeruginosa ATCC 10145 after 24 hr by broth dilution method; details: ATCC 10145, 24 h
Aspergillus niger = assay: Antimicrobial activity against Aspergillus niger ATCC 9142 after 24 hr by broth dilution method; details: ATCC 9142, 24 h
Aspergillus awamori = assay: Antimicrobial activity against Aspergillus awamori ATCC 22342 after 24 hr by broth dilution method; details: ATCC 22342, 24 h
Candida albicans = assay: Antimicrobial activity against Candida albicans ATCC 10231 after 24 hr by broth dilution method; details: ATCC 10231, 24 h
Alternaria alternata = assay: Antimicrobial activity against Alternaria alternata ATCC 66868 after 24 hr by broth dilution method; details: ATCC 66868, 24 h
Microsporum canis = assay: Antimicrobial activity against Arthroderma otae ATCC 11622 after 24 hr by broth dilution method; details: ATCC 11622, 24 h
Rhizoctonia solani = assay: Antimicrobial activity against Rhizoctonia solani ATCC 76131 after 24 hr by broth dilution method; details: ATCC 76131, 24 h
Trichophyton longifusum = assay: Antimicrobial activity against Trichophyton longifusum ATCC 22397 after 24 hr by broth dilution method; details: ATCC 22397, 24 h
Fusarium solani = assay: Antimicrobial activity against Fusarium solani ATCC 38136 after 24 hr by broth dilution method; details: ATCC 38136, 24 h
Trichoderma viride = assay: Antimicrobial activity against Hypocrea rufa ATCC 52440 after 24 hr by broth dilution method; details: ATCC 52440, 24 h
Aspergillus flavus = assay: Antimicrobial activity against Aspergillus flavus ATCC 15517 after 24 hr by broth dilution method; details: ATCC 15517, 24 h
Aspergillus fumigatus = assay: Antimicrobial activity against Aspergillus fumigatus after 24 hr by broth dilution method

Row | Compound | MIC (Bacillus spizizenii) [µg/mL] | MIC [1] [µg/mL] | MIC (Micrococcus luteus) [µg/mL] | MIC (Staphylococcus aureus) [µg/mL] | MIC (Staphylococcus hominis) [µg/mL] | MIC (Bacillus pumilus) [µg/mL] | MIC (Bacillus cereus) [µg/mL] | MIC (Proteus vulgaris) [µg/mL] | MIC (Proteus mirabilis) [µg/mL] | MIC (Salmonella typhi) [µg/mL] | MIC (Klebsiella pneumoniae) [µg/mL] | MIC (Escherichia coli) [µg/mL] | MIC (Pseudomonas aeruginosa) [µg/mL] | MIC (Aspergillus niger) [µg/mL] | MIC (Aspergillus awamori) [µg/mL] | MIC (Candida albicans) [µg/mL] | MIC (Alternaria alternata) [µg/mL] | MIC (Microsporum canis) [µg/mL] | MIC (Rhizoctonia solani) [µg/mL] | MIC (Trichophyton longifusum) [µg/mL] | also measured
1 | O=C1Nc2ccc(Cl)cc2/C1=N/N1C(=O)C(Cl)C1c1ccccc1 (stereo not given) | 37.5 (≈ 104 µM) | 37.5 (≈ 104 µM) | 37.5 (≈ 104 µM) | 75 (≈ 208 µM) | 75 (≈ 208 µM) | 37.5 (≈ 104 µM) | 37.5 (≈ 104 µM) | 37.5 (≈ 104 µM) | 37.5 (≈ 104 µM) | 75 (≈ 208 µM) | 37.5 (≈ 104 µM) | 37.5 (≈ 104 µM) | 37.5 (≈ 104 µM) | 18.8 (≈ 52.1 µM) | 37.5 (≈ 104 µM) | 37.5 (≈ 104 µM) | 18.8 (≈ 52.1 µM) | 37.5 (≈ 104 µM) | 18.8 (≈ 52.1 µM) | 37.5 (≈ 104 µM) | MIC (Fusarium solani): 18.8 µg/mL (≈ 52.1 µM); MIC (Trichoderma viride): 18.8 µg/mL (≈ 52.1 µM); MIC (Aspergillus flavus): 18.8 µg/mL (≈ 52.1 µM); MIC (Aspergillus fumigatus): 37.5 µg/mL (≈ 104 µM)
2 | O=C1Nc2ccc(Cl)cc2/C1=N/N1C(=O)CSC1c1ccc(F)cc1 (stereo not given) | 18.8 (≈ 49.9 µM) | 9.37 (≈ 24.9 µM) | 18.8 (≈ 49.9 µM) | 18.8 (≈ 49.9 µM) | 9.37 (≈ 24.9 µM) | 9.37 (≈ 24.9 µM) | 9.37 (≈ 24.9 µM) | 18.8 (≈ 49.9 µM) | 18.8 (≈ 49.9 µM) | 9.37 (≈ 24.9 µM) | 18.8 (≈ 49.9 µM) | 18.8 (≈ 49.9 µM) | 9.37 (≈ 24.9 µM) | 9.37 (≈ 24.9 µM) | 9.37 (≈ 24.9 µM) | 9.37 (≈ 24.9 µM) | 9.37 (≈ 24.9 µM) | 9.37 (≈ 24.9 µM) | 4.68 (≈ 12.5 µM) | 4.68 (≈ 12.5 µM) | MIC (Fusarium solani): 4.68 µg/mL (≈ 12.5 µM); MIC (Trichoderma viride): 4.68 µg/mL (≈ 12.5 µM); MIC (Aspergillus flavus): 9.37 µg/mL (≈ 24.9 µM); MIC (Aspergillus fumigatus): 4.68 µg/mL (≈ 12.5 µM)
3 | O=C1Nc2ccc(Cl)cc2/C1=N/N1C(=O)C(Cl)C1c1ccc([N+](=O)[O-])cc1 (stereo not given) | 9.37 (≈ 23.1 µM) | 18.8 (≈ 46.3 µM) | 9.37 (≈ 23.1 µM) | 18.8 (≈ 46.3 µM) | 18.8 (≈ 46.3 µM) | 9.37 (≈ 23.1 µM) | 9.37 (≈ 23.1 µM) | 9.37 (≈ 23.1 µM) | 9.37 (≈ 23.1 µM) | 9.37 (≈ 23.1 µM) | 9.37 (≈ 23.1 µM) | 18.8 (≈ 46.3 µM) | 9.37 (≈ 23.1 µM) | 4.68 (≈ 11.5 µM) | 9.37 (≈ 23.1 µM) | 4.68 (≈ 11.5 µM) | 4.68 (≈ 11.5 µM) | 4.68 (≈ 11.5 µM) | 9.37 (≈ 23.1 µM) | 9.37 (≈ 23.1 µM) | MIC (Fusarium solani): 9.37 µg/mL (≈ 23.1 µM); MIC (Trichoderma viride): 9.37 µg/mL (≈ 23.1 µM); MIC (Aspergillus flavus): 4.68 µg/mL (≈ 11.5 µM); MIC (Aspergillus fumigatus): 9.37 µg/mL (≈ 23.1 µM)
4 | Clc1ccccc1C(c1ccccc1)(c1ccccc1)n1ccnc1 [CLOTRIMAZOLE] |  |  |  |  |  |  |  |  |  |  |  |  |  | 2.34 (≈ 6.79 µM) | 2.34 (≈ 6.79 µM) | 0.58 (≈ 1.68 µM) | 2.34 (≈ 6.79 µM) | 1.17 (≈ 3.39 µM) | 1.17 (≈ 3.39 µM) | 2.34 (≈ 6.79 µM) | MIC (Fusarium solani): 1.17 µg/mL (≈ 3.39 µM); MIC (Trichoderma viride): 1.17 µg/mL (≈ 3.39 µM); MIC (Aspergillus flavus): 2.34 µg/mL (≈ 6.79 µM); MIC (Aspergillus fumigatus): 2.34 µg/mL (≈ 6.79 µM)
5 | O=C1Nc2ccc(Cl)cc2/C1=N/N1C(=O)CSC1c1ccccc1O (stereo not given) | 150 (≈ 401 µM) | 300 (≈ 803 µM) | 150 (≈ 401 µM) | 300 (≈ 803 µM) | 150 (≈ 401 µM) | 150 (≈ 401 µM) | 150 (≈ 401 µM) | 150 (≈ 401 µM) | 300 (≈ 803 µM) | 150 (≈ 401 µM) | 300 (≈ 803 µM) | 300 (≈ 803 µM) | 300 (≈ 803 µM) | 150 (≈ 401 µM) | 150 (≈ 401 µM) | 75 (≈ 201 µM) | 75 (≈ 201 µM) | 75 (≈ 201 µM) | 150 (≈ 401 µM) | 150 (≈ 401 µM) | MIC (Fusarium solani): 150 µg/mL (≈ 401 µM); MIC (Trichoderma viride): 150 µg/mL (≈ 401 µM); MIC (Aspergillus flavus): 75 µg/mL (≈ 201 µM); MIC (Aspergillus fumigatus): 150 µg/mL (≈ 401 µM)
6 | O=C(O)c1cn(C2CC2)c2cc(N3CCNCC3)c(F)cc2c1=O [CIPROFLOXACIN] | 4.7 (≈ 14.2 µM) | 4.7 (≈ 14.2 µM) | 4.7 (≈ 14.2 µM) | 4.7 (≈ 14.2 µM) | 4.7 (≈ 14.2 µM) | 4.7 (≈ 14.2 µM) | 4.7 (≈ 14.2 µM) | 4.7 (≈ 14.2 µM) | 4.7 (≈ 14.2 µM) | 4.7 (≈ 14.2 µM) | 4.7 (≈ 14.2 µM) | 4.7 (≈ 14.2 µM) | 4.7 (≈ 14.2 µM) |  |  |  |  |  |  |  | 
